Read-outs that look alike come from different tables or passages of the source.
Assays:
Type in all cases: cell-based, Wistar rats
uterine strips [1] = test: tissue or blood
uterine strips [2] = test: Effect of inhibitors on electrically-induced uterine contractions (field electrical stimulation)
uterine strips [3] = test: tissue or blood; conditions: for minimal effective concentration: read-out: concentration at which rhythmic contractions appeared
uterine strips [4] = test system: uterine strips
myometrial strips = test: Simultaneous measurement of contractile force and [Ca2+]i (Fura-2); conditions: veratridine 60 µM; myometrial fibers loaded with Fura-2; responding strips (10 of 21)
[5] = cumulative concentrations 1 nM-30 µM, strips exposed for 90 min (late response) to 60 µM veratridine

Question: What does the source list for CN1[C@@H]2CC[C@H]1C[C@@H](OC(=O)C(CO)c1ccccc1)C2 (stereo partly drawn) [Atropine, atropine]?
Answer: contractile area of spontaneous contractions, % of the previous contractile area (uterine strips [1]): 26.7 ± 2.2%; effect on spontaneous uterine contractions (uterine strips [1]): abolished or almost abolished; contractile area of electrically-induced uterine contractions, % of the previous contraction (uterine strips [2]): 30.3 ± 8.1%

Question: With COc1cc2nc(N3CCN(C(=O)c4ccco4)CC3)nc(N)c2cc1OC [Prazosin, prazosin] as the compound, how does the activity at 1 µM (uterine strips [1]; Rattus norvegicus, 40 min, read-out: contractile area of spontaneous contractions, % of the previous contractile area) read?
Answer: Its activity at 1 µM is 108 ± 9.1%.

Question: What about the activity at 1 µM (uterine strips [2]; Rattus norvegicus, read-out: contractile area of electrically-induced uterine contractions, % of the previous contraction) of the same compound?
Answer: The activity at 1 µM was 92.3 ± 4%.

Question: Which results are given for CCN1C[C@]2(COC)[C@H](O)C[C@H](OC)[C@@]34[C@@H]5C[C@@]6(O)[C@H](OC(=O)c7ccccc7)[C@@H]5[C@@](OC(C)=O)([C@@H]([C@H](OC)[C@H]23)[C@@H]14)[C@@H](O)[C@@H]6OC [aconitine]?
Answer: concentration at which the maximal response was reached (uterine strips [3]): 100 µM; minimal effective concentration (uterine strips [3]): ≥ 100 µM

Question: C=C(C=O)C[C@@H]1C[C@H](O)[C@]2(C)O[C@@H]3C[C@@H]4O[C@@H]5C[C@]6(C)O[C@]7(C)CC[C@@H]8O[C@@H]9C[C@]%10(C)O[C@@H]%11C(C)=CC(=O)O[C@H]%11C[C@H]%10O[C@H]9C[C@@H](C)[C@H]8O[C@H]7C[C@H]6O[C@H]5C/C=C\[C@H]4O[C@H]3C[C@H]2O1 [brevetoxin-B] was tested. Which “concentration at which the maximal response was reached” value (uterine strips [3]) did it give?
Answer: Its value is 0.03 µM.

Question: O=C(NCC1CCCCN1)c1cc(OCC(F)(F)F)ccc1OCC(F)(F)F (stereo not drawn) [flecainide] was tested. Which “effect on veratridine-induced rhythmic contractions” value (uterine strips [4]; [5]) did it give?
Answer: Its value is “did not modify”.

Question: What does the source list for COc1ccc(C(=O)O[C@H]2CC[C@@]3(C)[C@@H]4CC[C@H]5[C@]6(O)C[C@H](O)[C@@]7(O)[C@@H](CN8C[C@@H](C)CC[C@H]8[C@@]7(C)O)[C@]6(O)C[C@@]53O[C@]24O)cc1OC [veratridine]?
Answer: minimal effective concentration (uterine strips [3]; Rattus norvegicus, […], non-pregnant rats, undetermined stage of the ovarian cycle): ≥ 10 µM; concentration at which the maximal response was reached (uterine strips [3]; measured during a 60 min application, 1.9 or 1.1 mM Ca2+-containing solution): 60 µM; time the contractile response remained very regular and well maintained after addition (uterine strips [3]; veratridine 60 µM, continuous presence, 24 uterine strips from 12 animals): at least 12 h; frequency of contractions (myometrial strips): 0.75 ± 0.09 min⁻¹; mean amplitude of rhythmic contractions during a 10-min period (myometrial strips): 8.48 ± 1.20 mN

Question: For CCOC(=O)C1=C[C@]2(CC)CCCN3CCc4c(n1c1ccccc41)[C@@H]32 [vinpocetine], which “effect on veratridine-induced rhythmic contractions” value (uterine strips [4]; [5]) is on record?
Answer: The value was “did not modify”.

Question: Which “concentration at which the maximal response was reached” value (uterine strips [3]) does the source give for grayanotoxin here?
Answer: Its value is 30 µM.

Question: What about the minimal effective concentration (uterine strips [3]) of the same compound?
Answer: The minimal effective concentration was at least 20 µM.

Question: For µ-conotoxin GIIIB, which “effect on veratridine-induced rhythmic contractions” value (uterine strips [4]) is on record?
Answer: Its value is “did not modify”.

From EP1844781A1 (priority 2006, dated 2007)
